Laboratory results reported in patent US20100130549A1, “PSYCHOTROPIC COMPOUNDS, COMPOSITIONS AND METHODS OF USE” (priority 2007, published 2010).

Tests used:
Adrenergic α1B = molecular target: T1, Adrenergic α1B (Rattus norvegicus, UniProt P15823); assay: Radioligand binding assay, Adrenergic α1B
T1 sequence (P15823 1-515): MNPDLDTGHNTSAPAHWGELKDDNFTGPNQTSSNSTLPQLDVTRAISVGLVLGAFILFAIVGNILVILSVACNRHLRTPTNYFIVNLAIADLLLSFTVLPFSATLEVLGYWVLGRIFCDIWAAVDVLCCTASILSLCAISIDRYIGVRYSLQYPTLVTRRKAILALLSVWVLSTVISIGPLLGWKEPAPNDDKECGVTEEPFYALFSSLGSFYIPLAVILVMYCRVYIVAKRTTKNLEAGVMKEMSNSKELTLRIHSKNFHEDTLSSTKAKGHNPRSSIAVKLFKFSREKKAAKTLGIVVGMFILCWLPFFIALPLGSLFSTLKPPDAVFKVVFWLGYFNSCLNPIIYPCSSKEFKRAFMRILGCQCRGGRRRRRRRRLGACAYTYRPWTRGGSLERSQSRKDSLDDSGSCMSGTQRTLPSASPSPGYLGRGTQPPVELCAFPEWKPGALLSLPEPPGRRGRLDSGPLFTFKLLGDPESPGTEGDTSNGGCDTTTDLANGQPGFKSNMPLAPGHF
Text: (§1) . Table 1 provides data produced via a receptor binding assay and IC50 and Ki determination. […] In addition, the compound of formula (Ia) has a potent DAT inhibition, which is indicative of dopaminergic uptake inhibition and increased DA activity. In addition to the effect on SERT and DAT, the compound of formula (Ia) inhibited the transporter of Norepinephrine (NET), and several neurotransmitter's receptors like alpha2A and alpha2C receptors, alpha 1A and alphal C, 5HT2A and 5HT2C, signal histamine2 and dopamine D1. This specific profile is in line with the data on antidepressant, anxiolytic and moderate neuro-stimulation activity observed in the animal model studies.
(§2) With regard to the data provided in Table 1, the biochemical assay results are presented as the percent inhibition of specific binding or activity throughout the report. For primary assays, only the lowest concentration with a significant response judged by the assays’ criteria, is shown in this summary. […] Unless otherwise requested, primary screening in duplicate with quantitative data (e.g., IC50±SEM, Ki±SEM and nH) are shown.

BALB/c mice [1] = assay: Open field test
SHSY5Y cell-line = assay: Cell viability, neutral red method
[2] = molecular target: Trasnporter, Dopamine (DAT) (Homo sapiens, UniProt Q01959); assay: Radioligand binding assay, Dopamine transporter
Chain of Trasnporter, Dopamine (DAT) (Q01959 whole entry): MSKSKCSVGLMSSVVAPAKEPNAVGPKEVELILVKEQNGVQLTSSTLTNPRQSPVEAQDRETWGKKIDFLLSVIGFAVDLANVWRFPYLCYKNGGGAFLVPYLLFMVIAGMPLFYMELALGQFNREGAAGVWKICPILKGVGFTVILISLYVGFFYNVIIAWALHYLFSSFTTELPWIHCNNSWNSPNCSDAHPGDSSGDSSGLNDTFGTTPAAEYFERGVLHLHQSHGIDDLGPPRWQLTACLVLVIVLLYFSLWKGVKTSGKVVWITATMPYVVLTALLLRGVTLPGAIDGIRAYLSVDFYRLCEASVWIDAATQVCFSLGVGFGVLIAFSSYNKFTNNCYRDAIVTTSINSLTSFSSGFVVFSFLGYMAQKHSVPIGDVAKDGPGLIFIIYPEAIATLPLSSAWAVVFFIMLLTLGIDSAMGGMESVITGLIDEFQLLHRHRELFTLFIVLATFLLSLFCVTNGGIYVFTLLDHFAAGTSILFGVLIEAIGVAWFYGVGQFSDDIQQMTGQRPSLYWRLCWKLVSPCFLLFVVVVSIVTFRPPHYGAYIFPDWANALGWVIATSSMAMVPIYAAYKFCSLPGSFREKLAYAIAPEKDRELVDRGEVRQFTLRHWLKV
Text: as §2

BALB/c mice [3] = assay: Acute toxicity, ip administration; format: in vivo; conditions: ip up to 30 mg/kg
Description: […]. […] The body weight of the mice was determined up to 12 days after administration of the compounds.

ICR mice = assay: Acute toxicity, oral administration; format: in vivo; conditions: for stimulation behavior (number of rearings): acute oral
Description: FIG. 11B illustrates the effect of administering the compound of formula (Ia) on stimulation in ICR mice.
Acute toxicity was assessed in male BALB/c mice that had been orally administered the compound of formula (Ta). The compound of formula (Ia) was administered orally to mice at doses of 20, 25, 75, and 100 mg/kg (4 animals/group). Animals were followed for behavioral changes such as stimulation (number of rearings), and sedation, after 24, 48 and 72 hr. Body weight was determined up to 7 days after drug administration.

[4] = molecular target: Serotonin (5-Hydroxytryptamine) 5-HT2A (Homo sapiens, UniProt P28223); assay: Radioligand binding assay, 5-HT2A
Chain of Serotonin (5-Hydroxytryptamine) 5-HT2A (P28223 whole entry): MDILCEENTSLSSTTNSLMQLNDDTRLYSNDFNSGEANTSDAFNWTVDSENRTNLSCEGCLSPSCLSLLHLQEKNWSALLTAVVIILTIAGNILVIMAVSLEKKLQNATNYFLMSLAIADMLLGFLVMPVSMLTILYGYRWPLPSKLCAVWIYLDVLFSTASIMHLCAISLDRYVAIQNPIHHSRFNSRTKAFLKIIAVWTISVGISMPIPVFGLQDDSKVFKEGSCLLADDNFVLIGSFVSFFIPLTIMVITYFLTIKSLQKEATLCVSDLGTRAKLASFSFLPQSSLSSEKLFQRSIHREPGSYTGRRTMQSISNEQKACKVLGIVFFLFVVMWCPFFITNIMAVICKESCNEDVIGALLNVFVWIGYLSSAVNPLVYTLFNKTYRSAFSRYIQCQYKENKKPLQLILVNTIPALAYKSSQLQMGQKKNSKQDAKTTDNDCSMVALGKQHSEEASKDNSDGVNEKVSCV
Text: as §1, §2

BALB/c mice [5] = assay: Elevated plus maze; conditions: 10 mg/kg (equimolar) ip 1 hr prior
BALB/c mice [6] = assay: Rotor rod test (motor activity); format: in vivo; conditions: 10 mg/kg p.o., 90 min after administration; vs controls
Description: The test was performed 90 min after oral administration of the compounds. […] The rotor rod test involves placing the mouse on an elevated rotating bar. In this test, the mouse is placed on the bar such that it is facing the direction opposite to the rotation of the rod. The time lag to fall is determined.

ICR male mice = assay: Subchronic ip administration (toxicity); format: in vivo; conditions: mouse, in vivo, ip, 30 mg/kg
Text: […]. Except for this local irritation no other toxicity was noted.
[…]. […] Except of these local irritations no other toxicity was noted.

Adrenergic α1A = molecular target: T2, Adrenergic α1A (Rattus norvegicus, UniProt P43140); assay: Radioligand binding assay, Adrenergic α1A
T2 sequence (P43140 1-466): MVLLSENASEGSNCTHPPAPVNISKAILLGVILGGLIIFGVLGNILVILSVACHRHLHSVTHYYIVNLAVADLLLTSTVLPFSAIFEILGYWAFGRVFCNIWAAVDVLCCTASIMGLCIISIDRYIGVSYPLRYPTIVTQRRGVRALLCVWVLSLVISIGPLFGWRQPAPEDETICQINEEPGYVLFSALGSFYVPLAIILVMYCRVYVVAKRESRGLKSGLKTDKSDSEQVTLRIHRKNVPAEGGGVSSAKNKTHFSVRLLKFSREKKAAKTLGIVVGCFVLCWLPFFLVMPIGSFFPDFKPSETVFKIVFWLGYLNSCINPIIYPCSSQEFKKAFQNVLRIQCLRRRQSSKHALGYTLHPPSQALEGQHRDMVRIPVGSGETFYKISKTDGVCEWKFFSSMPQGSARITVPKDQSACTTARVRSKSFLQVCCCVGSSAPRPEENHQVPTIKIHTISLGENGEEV
Text: as §1, §2

[7] = 10 mg/kg (equimolar) ip 1 hr prior
[8] = 10 mg/kg (equimolar) ip 1 hr prior, p<0.001 vs controls

SMILES: CN[C@H]1CC[C@@H](c2ccc(Cl)c(Cl)c2)c2ccc(C#CCCCO)cc21 [compound Ia, (1S-cis)-4-(3,4-dichlorophenyl)-7-(5-hydroxy-1-pentyn-1-yl)-1,2,3,4-tetrahydro-N-methyl-1-naphthalenamine hydroiodide]
- IC50 (Adrenergic α1B): 562 nM
- nH (Adrenergic α1B): 1.08
- inhibition at 1 µM (Adrenergic α1B; 1 μM): 63%
- Ki (Adrenergic α1B; read-out: K1): 311 nM
- ratio (center/periphery) (BALB/c mice [1]; [7]): significantly increase
- total time spent in the center (areas 2+3) (BALB/c mice [1]; [7]): significantly increase
- frequency to the center (BALB/c mice [1]; 10 mg/kg (equimolar) ip 1 hr prior, controls 1.23): 1.35
- distance moved (BALB/c mice [1]; [8]): significantly increase
- velocity (BALB/c mice [1]; [8]): significantly increase
- sedative effect accompanying the anxiolytic activity (BALB/c mice [1]; orally 90 min prior): not accompanied by a sedative effect
- increase in cell viability compared to control vehicle treated cells (SHSY5Y cell-line; 1-5 μM, 24 and 48 hours incubation): 13-25%
- effect on cell viability over concentration range (SHSY5Y cell-line; 1-50 μM, low concentrations neurotrophic, high concentrations apoptosis): biphasic effects
- concentration of maximal neurotropic activity (SHSY5Y cell-line; concentration range 1-50 μM): 1 µM
- IC50 [2]: < 300 nM
- inhibition at 0.03 µM ([2]; 0.03 μM): 51%
- Ki ([2]; read-out: DAT final Ki): 29 nM
- survival (BALB/c mice [3]): all of the corresponding animals survived
- survival (ICR mice; acute oral up to 100 mg/kg): all animals survived
- tolerability (ICR mice; acute oral up to 100 mg/kg): well tolerated
- stimulation behavior (number of rearings) (ICR mice; 24 and 48hr after administration): significant increase
- stimulation behavior (number of rearings) (ICR mice; after 72 hr): normalization
- IC50 [4]: 3370 nM
- nH [4]: 1.06
- inhibition at 10 µM ([4]; read-out: % INH.): 81%
- Ki ([4]; read-out: K1): 965 nM
- anti-anxiety effect (BALB/c mice [5]): significant anti-anxiety effect
- muscle strength and basic motor activity (BALB/c mice [6]): did not modify
- histopathology of heart, spleen, liver and kidney (ICR male mice): minimal to mild irritation
- IC50 (Adrenergic α1A): 4200 nM
- nH (Adrenergic α1A): 1.34
- inhibition at 10 µM (Adrenergic α1A; 10 μM): 73%
- Ki (Adrenergic α1A; read-out: K1): 1700 nM
